Several values for one entry are separate records, joined by “and”; a condition that tells them apart may be missing. Identical values can stand only once. Inconclusive results and toxic doses are left out.
Test system: P388 leukemia ip, CD2F1 mice, survival T/C
Experiment: NCI In Vivo Anticancer Drug Screen. Data for tumor model P388 Leukemia (intraperitoneal) in CD2F1 (CDF1) mice
Settings: endpoint: median survival time, higher = longer survival
Outline: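 Mice carrying the transplanted tumor received test compound or vehicle. Survival was recorded in each group, and the value is the treated-group measurement divided by that of the vehicle-treated control group.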

[1] = dose: 50.0 mg/kg/injection, schedule: Q01DX005 (ip), vehicle: Klucel (hydroxypropylcellulose) (HPC)
[2] = dose: 200.0 mg/kg/injection, schedule: Q01DX001 (ip), vehicle: Klucel (hydroxypropylcellulose) (HPC)
[3] = dose: 100.0 mg/kg/injection, schedule: Q04DX002 (ip), vehicle: saline with Tween-80
[4] = dose: 50.0 mg/kg/injection, schedule: Q01DX005 (ip), vehicle: saline with Tween-80
[5] = dose: 100.0 mg/kg/injection, schedule: Q01DX005 (ip), vehicle: saline with Tween-80
[6] = dose: 50.0 mg/kg/injection, schedule: Q01DX009 (ip), vehicle: Klucel (hydroxypropylcellulose) (HPC)
[7] = dose: 100.0 mg/kg/injection, schedule: Q01DX009 (ip), vehicle: Klucel (hydroxypropylcellulose) (HPC)
[8] = dose: 12.5 mg/kg/injection, schedule: Q01DX009 (ip), vehicle: saline with Tween-80
[9] = dose: 25.0 mg/kg/injection, schedule: Q01DX009 (ip), vehicle: saline with Tween-80
[10] = dose: 50.0 mg/kg/injection, schedule: Q01DX009 (ip), vehicle: saline with Tween-80
[11] = dose: 100.0 mg/kg/injection, schedule: Q01DX001 (ip), vehicle: Klucel (hydroxypropylcellulose) (HPC)
[12] = dose: 400.0 mg/kg/injection, schedule: Q01DX001 (ip), vehicle: Klucel (hydroxypropylcellulose) (HPC)
[13] = dose: 100.0 mg/kg/injection, schedule: Q04DX003 (ip), vehicle: saline with Tween-80
[14] = dose: 200.0 mg/kg/injection, schedule: Q04DX003 (ip), vehicle: saline with Tween-80
[15] = dose: 400.0 mg/kg/injection, schedule: Q04DX003 (ip), vehicle: saline with Tween-80
[16] = dose: 60.0 mg/kg/injection, schedule: Q01DX005 (ip), vehicle: saline with Tween-80
[17] = dose: 120.0 mg/kg/injection, schedule: Q01DX005 (ip), vehicle: saline with Tween-80
[18] = dose: 240.0 mg/kg/injection, schedule: Q01DX005 (ip), vehicle: saline with Tween-80
[19] = dose: 100.0 mg/kg/injection, schedule: Q01DX009 (ip), vehicle: saline with Tween-80
[20] = dose: 200.0 mg/kg/injection, schedule: Q01DX005 (ip), vehicle: saline with Tween-80
[21] = dose: 60.0 mg/kg/injection, schedule: Q01DX005 (ip), vehicle: Klucel (hydroxypropylcellulose) (HPC)

For Clc1ccc2c(NCCC3CCCN4CCCCC34)ccnc2c1 (centres undefined), the T/C (dose: 12.5 mg/kg/injection, schedule: Q01DX005 (ip), vehicle: Klucel (hydroxypropylcellulose) (HPC)) was 100 % of control, the T/C (dose: 25.0 mg/kg/injection, schedule: Q01DX005 (ip), vehicle: Klucel (hydroxypropylcellulose) (HPC)) was 103 % of control and the T/C [1] was 100 % of control and 97 % of control.

CC/C(=C(/CC)c1ccc(OCC(=O)N/N=C2\CCC3C4CCc5cc(O)ccc5C4CCC23C)cc1)c1ccc(OCC(=O)N/N=C2/CCC3C4CCc5cc(O)ccc5C4CCC23C)cc1 (centres undefined) was tested, and the T/C (dose: 3.12 mg/kg/injection, schedule: Q01DX001 (ip), vehicle: Klucel (hydroxypropylcellulose) (HPC)) was 100 % of control, the T/C (dose: 6.25 mg/kg/injection, schedule: Q01DX001 (ip), vehicle: Klucel (hydroxypropylcellulose) (HPC)) was 102 % of control and the T/C (dose: 12.5 mg/kg/injection, schedule: Q01DX001 (ip), vehicle: Klucel (hydroxypropylcellulose) (HPC)) was 97 % of control. The T/C (dose: 50.0 mg/kg/injection, schedule: Q01DX001 (ip), vehicle: Klucel (hydroxypropylcellulose) (HPC)) was 91 % of control and the T/C [2] was 87 % of control.

For O=C1CC2OCC=C3CN4CCC56c7ccccc7N1C5C2C3CC46 (centres undefined), the T/C (dose: 0.2 mg/kg/injection, schedule: Q01DX009 (ip), vehicle: saline with Tween-80) was 100 % of control, the T/C (dose: 0.4 mg/kg/injection, schedule: Q01DX009 (ip), vehicle: saline with Tween-80) was 102 % of control and the T/C (dose: 0.8 mg/kg/injection, schedule: Q01DX009 (ip), vehicle: saline with Tween-80) was 97 % of control.

In the case of CCC(c1ccc(OC)cc1)C(NC(=S)NCc1ccccc1)c1ccc(OC)cc1 (centres undefined), the T/C [3] was 94 % of control and the T/C (dose: 200.0 mg/kg/injection, schedule: Q04DX002 (ip), vehicle: saline with Tween-80) was 91 % of control.

O=C1c2ccccc2C(=O)N1c1ccc(Nc2nc(Nc3ccc(N4C(=O)c5ccccc5C4=O)cc3)nc(N(C3CCCCC3)C3CCCCC3)n2)cc1 was tested, and the T/C [4] was 94 % of control and the T/C [5] was 87 % of control.

In the case of O=P(O)(O)SP(=O)(O)O.[Co], the T/C [6] was 105 % of control and the T/C [7] was 94 % of control.

In the case of Cc1ccc(NC(=O)CO)cc1Cl, the T/C (dose: 50.0 mg/kg/injection, schedule: Q01DX009 (ip), vehicle: saline) was 103 % of control, the T/C (dose: 100.0 mg/kg/injection, schedule: Q01DX009 (ip), vehicle: saline) was 103 % of control and the T/C (dose: 200.0 mg/kg/injection, schedule: Q01DX009 (ip), vehicle: saline) was 116 % of control.

With CC(C)S(=O)(=O)/C(Cl)=C(/Cl)C(Cl)=C(Cl)Cl the T/C [8] was 100 % of control, the T/C [9] was 109 % of control and the T/C [10] was 95 % of control.

With N#CC(C#N)=C1c2ccccc2C(=O)c2ccccc21 the T/C [1] was 88 % of control, the T/C (dose: 100.0 mg/kg/injection, schedule: Q01DX005 (ip), vehicle: Klucel (hydroxypropylcellulose) (HPC)) was 88 % of control and the T/C (dose: 200.0 mg/kg/injection, schedule: Q01DX005 (ip), vehicle: Klucel (hydroxypropylcellulose) (HPC)) was 92 % of control.

For Nc1n[nH]c(=O)n1N, the T/C [11] was 106 % of control, the T/C [2] was 100 % of control and the T/C [12] was 107 % of control.

CCCCn1c(=O)cc[nH]c1=O was tested, and the T/C [13] was 100 % of control, the T/C [14] was 100 % of control and the T/C [15] was 99 % of control.

With CCCCCCCCCCCCCCCCS(=O)(=O)N/N=C(/c1ccc(Cl)cc1)N1CCCCC1 the T/C [6] was 100 % of control, the T/C [7] was 102 % of control and the T/C (dose: 200.0 mg/kg/injection, schedule: Q01DX009 (ip), vehicle: Klucel (hydroxypropylcellulose) (HPC)) was 92 % of control.

With CN(C)Cc1cc2c(=O)[nH]c(N)nc2[nH]1 the T/C [11] was 101 % of control and the T/C [2] was 104 % of control.

CC(OS(C)(=O)=O)/C(Br)=C(/Br)C(C)OS(C)(=O)=O (centres undefined) was tested, and the T/C [11] was 158 % of control, the T/C [2] was 204 % of control and the T/C [12] was 230 % of control.

CCNC(=O)C1CCN(Cc2c[nH]c3ccccc23)CC1 was tested, and the T/C (dose: 50.0 mg/kg/injection, schedule: Q04DX003 (ip), vehicle: saline with Tween-80) was 113 % of control, the T/C [13] was 93 % of control and the T/C [14] was 102 % of control.

In the case of Cc1ccccc1N1C(=O)C(=O)C(c2nc3ccccc3s2)C(=O)C1=O, the T/C [16] was 99 % of control, the T/C [17] was 98 % of control and the T/C [18] was 97 % of control.

For CSC(C=C1C=CN(CC(=O)c2ccccc2)C=C1)=C(C#N)C#N, the T/C (dose: 25.0 mg/kg/injection, schedule: Q04DX002 (ip), vehicle: saline with Tween-80) was 97 % of control, the T/C (dose: 50.0 mg/kg/injection, schedule: Q04DX002 (ip), vehicle: saline with Tween-80) was 102 % of control and the T/C [3] was 99 % of control.

In the case of Oc1cc(CN2CCCC2)c(O)cc1CN1CCCC1, the T/C [9] was 103 % of control and 111 % of control, the T/C [10] was 103 % of control and 111 % of control and the T/C [19] was 110 % of control and 111 % of control.

For Cc1ccc(C)c(NC(=O)CCC(=O)C(C#N)c2cccc3ccccc23)c1 (centres undefined), the T/C [16] was 104 % of control, the T/C [17] was 104 % of control and the T/C [18] was 105 % of control.

With C=CCC(O)C(=O)OC1CC(C)CCC1C(C)(C)c1ccccc1 (centres undefined) the T/C [16] was 106 % of control, the T/C [17] was 100 % of control and the T/C [18] was 107 % of control.

In the case of O=C(Nc1nc(-c2ccccc2)cs1)OCC(Cl)(Cl)Cl, the T/C [4] was 93 % of control, the T/C [5] was 91 % of control and the T/C [20] was 96 % of control.

In the case of C/C=C(/C)C(=O)OC1CC(C)=CC(OC(=O)/C(C)=C\C)[C@]2(C)C1[C@](O)(C(C)C)C[C@H]2O (some centres undefined), the T/C (dose: 2.0 mg/kg/injection, schedule: Q01DX005 (ip), vehicle: Klucel (hydroxypropylcellulose) (HPC)) was 106 % of control, the T/C (dose: 4.0 mg/kg/injection, schedule: Q01DX005 (ip), vehicle: Klucel (hydroxypropylcellulose) (HPC)) was 96 % of control and the T/C (dose: 8.0 mg/kg/injection, schedule: Q01DX005 (ip), vehicle: Klucel (hydroxypropylcellulose) (HPC)) was 99 % of control. The T/C (dose: 16.0 mg/kg/injection, schedule: Q01DX005 (ip), vehicle: Klucel (hydroxypropylcellulose) (HPC)) was 99 % of control.

CCOC(=O)NOP(=O)(N1CC1(C)C)N1CC1(C)C (centres undefined) was tested, and the T/C (dose: 62.5 mg/kg/injection, schedule: Q01DX001 (ip), vehicle: saline + alcohol) was 107 % of control, the T/C (dose: 125.0 mg/kg/injection, schedule: Q01DX001 (ip), vehicle: saline + alcohol) was 117 % of control and the T/C (dose: 250.0 mg/kg/injection, schedule: Q01DX001 (ip), vehicle: other) was 150 % of control. The T/C (dose: 250.0 mg/kg/injection, schedule: Q01DX001 (ip), vehicle: saline + alcohol) was 120 % of control, the T/C (dose: 500.0 mg/kg/injection, schedule: Q01DX001 (ip), vehicle: other) was 163 % of control and the T/C (dose: 500.0 mg/kg/injection, schedule: Q01DX001 (ip), vehicle: saline + alcohol) was 150 % of control.

In the case of CCCCCC(/C=C/C1C(O[Si](C)(C)C(C)(C)C)CC(N(C)C)C1(C/C=C/CCCC#N)S(=O)(=O)c1ccccc1)O[Si](C)(C)C(C)(C)C (centres undefined), the T/C [21] was 86 % of control and the T/C (dose: 120.0 mg/kg/injection, schedule: Q01DX005 (ip), vehicle: Klucel (hydroxypropylcellulose) (HPC)) was 86 % of control.

CC1C2=C(CC(C)(C)CC2=O)OC2=C1C(=O)CC(C)(C)C2 was tested, and the T/C [10] was 103 % of control, the T/C [19] was 104 % of control and the T/C (dose: 200.0 mg/kg/injection, schedule: Q01DX009 (ip), vehicle: saline with Tween-80) was 99 % of control.

In the case of O=C1OC2C(COC(=O)c3cc(O)c(O)c(O)c3)OC(OC(=O)c3cc(O)c(O)c(O)c3)C(OC(=O)c3cc(O)c(O)c4c3C3C1=CC(=O)[C@](O)(O4)C3(O)O)C2OC(=O)c1cc(O)c(O)c(O)c1 (some centres undefined), the T/C (dose: 6.25 mg/kg/injection, schedule: Q01DX009 (ip), vehicle: saline) was 98 % of control, the T/C (dose: 12.5 mg/kg/injection, schedule: Q01DX009 (ip), vehicle: saline) was 99 % of control and the T/C (dose: 25.0 mg/kg/injection, schedule: Q01DX009 (ip), vehicle: saline) was 98 % of control.

NC(=O)c1ccc(C(N)=O)cc1 was tested, and the T/C [8] was 100 % of control, the T/C [9] was 100 % of control and the T/C [10] was 95 % of control.

NC(=S)Nc1ccc(C(=O)O)cc1 was tested, and the T/C [13] was 100 % of control, the T/C [14] was 95 % of control and the T/C [15] was 109 % of control.

For C=C(C)C(=O)NC(N)=NC#N, the T/C [21] was 122 % of control.

CC1(Oc2ccccc2)OC(=O)c2ccccc2O1 (centres undefined) was tested, and the T/C [4] was 96 % of control, the T/C [5] was 104 % of control and the T/C [20] was 95 % of control.
